Consider 1 compound from patent publication US20260216218A1, “CANNABINOID COMPOSITIONS, AND USES THEREOF IN TREATMENT OF NEURODEGENERATIVE DISEASES OR DISORDERS AND CANCERS” (Biopharmaceutical Research Company, priority 2023, published 2026).

Molecules are shown by their SMILES.

The subject of this assay is BR5270 transgenic Caenorhabditis elegans strain. The assay can be described thus: Survival (lifespan) in the preclinical Tau C. elegans model. It counts as in vivo. Conditions: for Survival of C. elegans: 40 μM; for % Alive: BR5270, 40 μM. How it is done: Many neurodegenerative diseases and conditions associated with neuronal insult are characterized by intracellular aggregates of the microtubule associated protein Tau. […] Due to the significant impact on lifespan and locomotion defect produced by this model, time/cost-effective and high throughput acquisition of data, the C. elegans model of tauopathy serves as an advantageous screening tool for the discovery of novel modulators of neurodegeneration.
Cannabinoid botanical drug substances (20 μM, 40 μM, 80 μM) were prepared in accordance with the protocol described in Example 1 above. The exemplary cannabinoid botanical drug substance used in the study of this example includes CBD, CBG and THC present as the major components in a ratio of 50:20:1.
The effect of the two different complex botanical mixtures described above were compared to the comparative control, cannabidiol (40 μM) and a no treatment negative control in the BR5270 transgenic strain. Additional no-treatment negative control and healthspan extension positive control (cannabidiol 40 μM) in wild-type arms served as added comparators. All examinations were performed in triplicate. The impact of three doses of each compound on animal survival and activity levels were examined on days 4, 8, 12, and 16 of animal life. These time points represent the first day of adulthood, early-, mid-, and late-life periods in the C. elegans lifespan.

`C=C(C)[C@@H]1CCC(C)=C[C@H]1c1c(O)cc(CCCCC)cc1O` [CBD, cannabidiol]: the “Survival of C. elegans” value (Day 12 (Table 1b summary)) is given as 39 and the “Survival of C. elegans” value (Day 16 (Table 1b summary)) was found to be 10. For the same compound, the “% Alive” value runs as follows: (day 4 of animal life) 100%; (day 8 of animal life) 73.17%; (day 12 of animal life) 39.39%; (day 16 of animal life) 9.738%.
